Legend:
[1] = target: T1, Renin (Homo sapiens, UniProt P00797); assay: Inhibition of renin
T1 sequence (P00797 whole entry): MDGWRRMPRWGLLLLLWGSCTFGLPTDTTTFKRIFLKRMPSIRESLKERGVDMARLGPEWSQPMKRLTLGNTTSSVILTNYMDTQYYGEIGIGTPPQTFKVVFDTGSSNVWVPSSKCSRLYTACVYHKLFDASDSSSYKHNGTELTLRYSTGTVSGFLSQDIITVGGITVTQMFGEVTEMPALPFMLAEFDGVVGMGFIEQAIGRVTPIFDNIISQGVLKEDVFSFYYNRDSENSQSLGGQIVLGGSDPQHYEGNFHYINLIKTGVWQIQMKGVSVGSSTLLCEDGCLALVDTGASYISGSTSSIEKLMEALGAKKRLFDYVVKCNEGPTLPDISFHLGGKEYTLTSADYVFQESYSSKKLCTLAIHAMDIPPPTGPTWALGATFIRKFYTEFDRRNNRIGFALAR

[2] = target: Cytochrome P450 3A4 (Homo sapiens, UniProt P08684); assay: Inhibition of CYP3A4 using BFC fluorogenic substrate; format: ADME
Chain of Cytochrome P450 3A4 (P08684 whole entry): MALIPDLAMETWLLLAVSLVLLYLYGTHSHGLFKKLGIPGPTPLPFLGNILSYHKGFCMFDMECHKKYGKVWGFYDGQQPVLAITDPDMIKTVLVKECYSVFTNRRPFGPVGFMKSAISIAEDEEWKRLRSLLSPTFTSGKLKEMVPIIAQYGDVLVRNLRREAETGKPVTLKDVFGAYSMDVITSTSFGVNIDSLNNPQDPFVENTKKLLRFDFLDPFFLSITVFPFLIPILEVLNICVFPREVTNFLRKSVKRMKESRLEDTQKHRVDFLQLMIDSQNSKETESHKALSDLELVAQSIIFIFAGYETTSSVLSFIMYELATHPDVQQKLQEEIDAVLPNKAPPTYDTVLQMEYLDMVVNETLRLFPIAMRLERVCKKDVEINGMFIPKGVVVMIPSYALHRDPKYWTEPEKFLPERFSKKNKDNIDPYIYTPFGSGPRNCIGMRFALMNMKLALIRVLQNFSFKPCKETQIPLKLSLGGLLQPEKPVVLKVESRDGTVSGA

[3] = target: CYP3A4 (Homo sapiens, UniProt P08684); assay: Inhibition of CYP3A4 at 3 uM; format: ADME
Chain of CYP3A4 (P08684 whole entry): as above

COc1ccccc1COCCCOc1ccc(N2C(=O)CNC[C@@H]2COc2ccc3c(c2)N(CCN2CCCC2=O)CCC3)cc1
IC50 [1]: 606 nM
IC50 [2]: 42 nM

COc1ccccc1COCCCOc1ccc(N2C(=O)CNC[C@@H]2COc2ccc3c(c2)N(CCOC(=O)C(C)C)CCC3)cc1
inhibition at 3 µM [3]: 92%
IC50 [1]: 550 nM
IC50 [2]: 54 nM

COc1ccccc1COCCCOc1ccc(N2C(=O)CNC[C@@H]2COc2ccc3c(c2)N(CCNC(C)=O)CCC3)cc1
inhibition at 3 µM [3]: 92%
IC50 [1]: 0.29 nM
IC50 [2]: 82 nM

COc1ccccc1COCCCOc1ccc(N2C(=O)CNC[C@@H]2COc2ccc3c(c2)N(CCC(=O)O)CCC3)cc1
IC50 [1]: 450 nM
IC50 [2]: 10000 nM

COc1ccccc1COCCCOc1ccc(N2C(=O)CNC[C@@H]2COc2ccc3c(c2)N(CC(=O)O)C(=O)CO3)cc1
IC50 [1]: 364 nM
IC50 [2]: 25000 nM

COCCCN1CCCc2ccc(OC[C@H]3CNCC(=O)N3c3ccc(OCCCOCc4ccccc4OC)cc3)cc21
inhibition at 3 µM [3]: 96%
IC50 [2]: 12 nM

COc1ccccc1COCCCOc1ccc(N2C(=O)CNC[C@@H]2COc2ccc3c(c2)N(CCOC(C)=O)CCC3)cc1
inhibition at 3 µM [3]: 87%

COc1ccccc1COCCCOc1ccc(N2C(=O)CNC[C@@H]2COc2ccc3c(c2)N(CCN(C)C(C)=O)CCC3)cc1
IC50 [1]: 4 nM
IC50 [2]: 18 nM

COc1ccccc1COCCCOc1ccc(N2C(=O)CNC[C@@H]2CSc2ccc3c(c2)N(CC(=O)O)C(=O)CO3)cc1
IC50 [1]: 1200 nM
IC50 [2]: 15000 nM

COCCCN1C(=O)COc2ccc(OC[C@H]3CNCC(=O)N3c3ccc(OCCCOCc4ccccc4OC)cc3)cc21
inhibition at 3 µM [3]: 95%
IC50 [1]: 0.68 nM

COCCCN1C(=O)CCc2ccc(OC[C@H]3CNCC(=O)N3c3ccc(OCCCOCc4ccccc4OC)cc3)cc21
inhibition at 3 µM [3]: 92%
IC50 [2]: 35 nM

COc1ccccc1COCCCOc1ccc(N2C(=O)CNC[C@@H]2COc2ccc3c(c2)N(CCCO)CCC3)cc1
inhibition at 3 µM [3]: 71%
IC50 [2]: 455 nM

CCC(=O)OCCN1CCCc2ccc(OC[C@H]3CNCC(=O)N3c3ccc(OCCCOCc4ccccc4OC)cc3)cc21
inhibition at 3 µM [3]: 96%

COCCCN1C(=O)COc2ccc(SC[C@H]3CNCC(=O)N3c3ccc(OCCCOCc4ccccc4OC)cc3)cc21
inhibition at 3 µM [3]: 95%
IC50 [2]: 14 nM

COc1ccccc1COCCCOc1ccc(N2C(=O)CNC[C@@H]2COc2ccc3c(c2)N(CCN2CCOC2=O)CCC3)cc1
IC50 [1]: > 1000 nM
IC50 [2]: 3790 nM
